{
  "source": "patent US9556153B1",
  "about": "“JAK1 inhibitors” (Eli Lilly and Company, priority 2015, dated 2017)",
  "key": {"[1]": {"test_system": "Ba/F3 cells expressing human mtJAK1 (S729C)", "test": "BaF3 Mutant JAK-1 (S729C) Clone 12 Proliferation Assay", "format": "cell-based, Murine", "conditions": "BaF3, 72 h; 3 day incubation, Cell Titer Glo; n=4", "method": "BaF3 Mutant JAK-1 (S729C) Clone 12 Proliferation Assay\nThe purpose of this assay is to determine the inhibitory activity of JAK-1 specific inhibitors using the BaF3 mutant JAK-1 (S729C) Clone 12 proliferation assay.\nmtJAK1 (S729C) expressing cell line is created by transducing Ba/F3 cells (Murine pro-B-cells) with a retrovirus expressing human mtJAK1 (S729C)-pQCXIN vector DNA. Single cell cloning is performed to select Ba/F3 cells expressing highest levels of mtJAK1 (S729C) by serial dilution. BaF3 mutant JAK-1 (S729C) suspension cells are cultured and maintained in (Gibco RPMI 1640 cat# A10491-01) containing 10% Hi-FBS (Hyclone cat#10082-047), 1 μg/ml puromycin dihydrochloride (Sigma cat#9620), 1.0 mg/mL G418 sulfate (Corning ref#30-234-CI), referred to as R10+ from now on.\nProliferation assays are performed in culture medium without selection and from now on will be referred to as (R10−). Briefly, cultured cells are decanted, centrifuged and reconstituted in 10 mL of R10− and counted using a Beckman Coulter Vi-Cell. Cells are further diluted to 2e4/mL in R10− and plated in a 96 well white opaque assay plates (Costar cat#3610) at 1×10^3 cells (50 μls) per well. […] Luminescence is then read on a Perkin Elmer Victor2 using a preset program for luminescence at 0.1 second. […]"}, "[2]": {"test_system": "pSTAT3 expression in the H1975 xenograft", "test": "pSTAT3 Rat IVTI (JAK1) Assay, H1975 xenograft", "format": "in vivo", "conditions": "single oral dose, two hours, n=1", "method": "pSTAT3 Rat IVTI (JAK1) Assay\nThe purpose of this assay is to measure the ability of test compounds to inhibit the pSTAT3 expression in the H1975 xenograft rat model. Grow H1975 cells according to ATCC specifications at the lowest possible passage number available. Culture and maintain cells in RPMI-1640 supplemented with 10% FBS and incubated at 37° C. in 5% CO2. Harvest cells by standard techniques and mix with BD Biosciences basement membrane matrix (MATRIGEL®) to achieve a 1:1 cell/matrix ratio yielding an inoculation volume of 0.2 mL cell/matrix suspension containing 2e6 cells. Keep cell suspensions on ice throughout the inoculation procedure and start implantations within one hour after cell culture harvest. […] Time course studies are a single dose administered at the TED70 determined from the dose response study. […]\nHarvest and cut tumors to yield approximately 200-250 mm^3 size fragments and immediately drop into a 12×75 mm tube containing 1 mL of ice cold MSD Tris Lysis buffer (Meso Scale Discovery cat# R60TX-2) and 1×HALT (Thermo Scientific product #1861281). […] Cool plate to RT and measure absorbance at or near 562 nm on Molecular Devices Spectra Max. Protein concentrations for each sample are determined using SoftMax Pro 6.3 software program. After tumor samples are quantitated, freeze at −80° C. in the 96 well polypropylene plate and assay at a later date. […]"}},
  "note": "pIC50: −log10 of the molar value.",
  "data": [
    {"compound": "Cc1cc(Nc2cc(O[C@H]3CC[C@@H](NC[C@@H](O)C(F)(F)F)CC3)cc3c2ncn3C)nn1C", "note": "[Example 1, (2R)-3-{[cis-4-({4-[(1,5-Dimethyl-1H-pyrazol-3-yl)amino]-1-methyl-1H-benzimidazol-6-yl}oxy)cyclohexyl]amino}-1,1,1-trifluoropropan-2-ol]", "values": [
      {"measurement": "pIC50", "setting": "[1]", "value": 6.02},
      {"measurement": "TEC50 (plasma concentration required to achieve 50% pSTAT3 inhibition)", "setting": "[2]", "value": 3.9, "unit": "μM"},
      {"measurement": "TED50 (dose necessary to achieve 50% pSTAT3 inhibition)", "setting": "[2]", "value": 9, "unit": "mg/kg"}
    ]}
  ]
}
